Experimental data: ChEMBL document CHEMBL5727267, “Compounds useful as inhibitors of ATR kinase” (2019)

Each compound was assayed against Serine/threonine-protein kinase ATR (Homo sapiens, UniProt Q13535) (assay: Inhibition Assay: Compounds were screened for their ability to inhibit ATR kinase using a radioactive-phosphate incorporation assay. Assays were carried out in a mixture of 50 mM Tris/HCl (pH 7.5), 10 mM MgCl2 and 1 mM DTT. Final substrate concentrations were 10 μM [γ-33P]ATP (3mCi 33P ATP/mmol ATP, Perkin Elmer) and 800 μM target peptide ([…]) (SEQ ID NO:1).Assays were carried out at 25° C. in the presence of 5 nM full-length ATR. An assay stock buffer solution was prepared containing all of the reagents listed above, with the exception of ATP and the test compound of interest. 13.5 μL of the stock solution was placed in a 96 well plate followed by addition of 2 μL of DMSO stock containing serial dilutions of the test compound (typically starting from a final concentration of 15 μM with 3-fold serial dilutions) in duplicate (final DMSO concentration 7%). The plate was pre-incubated for 10 minutes at 25° C. and the reaction initiated by addition of 15 μL [γ-33P]ATP (final concentration 10 μM).The reaction was stopped after 24 hours by the addition of 30 μL 0.1M phosphoric acid containing 2 mM ATP. A multiscreen phosphocellulose filter 96-well plate (Millipore, Cat no. MAPHN0B50) was pretreated with 100 μL 0.2M phosphoric acid prior to the addition of […] of the stopped assay mixture. The plate was washed with 5×200 μL 0.2M phosphoric acid. After drying, 100 μL Optiphase ‘SuperMix’ liquid scintillation cocktail (Perkin Elmer) was added to the well prior to scintillation counting (1450 Microbeta Liquid Scintillation Counter, Wallac).).
Sequence of Serine/threonine-protein kinase ATR (Q13535 whole entry): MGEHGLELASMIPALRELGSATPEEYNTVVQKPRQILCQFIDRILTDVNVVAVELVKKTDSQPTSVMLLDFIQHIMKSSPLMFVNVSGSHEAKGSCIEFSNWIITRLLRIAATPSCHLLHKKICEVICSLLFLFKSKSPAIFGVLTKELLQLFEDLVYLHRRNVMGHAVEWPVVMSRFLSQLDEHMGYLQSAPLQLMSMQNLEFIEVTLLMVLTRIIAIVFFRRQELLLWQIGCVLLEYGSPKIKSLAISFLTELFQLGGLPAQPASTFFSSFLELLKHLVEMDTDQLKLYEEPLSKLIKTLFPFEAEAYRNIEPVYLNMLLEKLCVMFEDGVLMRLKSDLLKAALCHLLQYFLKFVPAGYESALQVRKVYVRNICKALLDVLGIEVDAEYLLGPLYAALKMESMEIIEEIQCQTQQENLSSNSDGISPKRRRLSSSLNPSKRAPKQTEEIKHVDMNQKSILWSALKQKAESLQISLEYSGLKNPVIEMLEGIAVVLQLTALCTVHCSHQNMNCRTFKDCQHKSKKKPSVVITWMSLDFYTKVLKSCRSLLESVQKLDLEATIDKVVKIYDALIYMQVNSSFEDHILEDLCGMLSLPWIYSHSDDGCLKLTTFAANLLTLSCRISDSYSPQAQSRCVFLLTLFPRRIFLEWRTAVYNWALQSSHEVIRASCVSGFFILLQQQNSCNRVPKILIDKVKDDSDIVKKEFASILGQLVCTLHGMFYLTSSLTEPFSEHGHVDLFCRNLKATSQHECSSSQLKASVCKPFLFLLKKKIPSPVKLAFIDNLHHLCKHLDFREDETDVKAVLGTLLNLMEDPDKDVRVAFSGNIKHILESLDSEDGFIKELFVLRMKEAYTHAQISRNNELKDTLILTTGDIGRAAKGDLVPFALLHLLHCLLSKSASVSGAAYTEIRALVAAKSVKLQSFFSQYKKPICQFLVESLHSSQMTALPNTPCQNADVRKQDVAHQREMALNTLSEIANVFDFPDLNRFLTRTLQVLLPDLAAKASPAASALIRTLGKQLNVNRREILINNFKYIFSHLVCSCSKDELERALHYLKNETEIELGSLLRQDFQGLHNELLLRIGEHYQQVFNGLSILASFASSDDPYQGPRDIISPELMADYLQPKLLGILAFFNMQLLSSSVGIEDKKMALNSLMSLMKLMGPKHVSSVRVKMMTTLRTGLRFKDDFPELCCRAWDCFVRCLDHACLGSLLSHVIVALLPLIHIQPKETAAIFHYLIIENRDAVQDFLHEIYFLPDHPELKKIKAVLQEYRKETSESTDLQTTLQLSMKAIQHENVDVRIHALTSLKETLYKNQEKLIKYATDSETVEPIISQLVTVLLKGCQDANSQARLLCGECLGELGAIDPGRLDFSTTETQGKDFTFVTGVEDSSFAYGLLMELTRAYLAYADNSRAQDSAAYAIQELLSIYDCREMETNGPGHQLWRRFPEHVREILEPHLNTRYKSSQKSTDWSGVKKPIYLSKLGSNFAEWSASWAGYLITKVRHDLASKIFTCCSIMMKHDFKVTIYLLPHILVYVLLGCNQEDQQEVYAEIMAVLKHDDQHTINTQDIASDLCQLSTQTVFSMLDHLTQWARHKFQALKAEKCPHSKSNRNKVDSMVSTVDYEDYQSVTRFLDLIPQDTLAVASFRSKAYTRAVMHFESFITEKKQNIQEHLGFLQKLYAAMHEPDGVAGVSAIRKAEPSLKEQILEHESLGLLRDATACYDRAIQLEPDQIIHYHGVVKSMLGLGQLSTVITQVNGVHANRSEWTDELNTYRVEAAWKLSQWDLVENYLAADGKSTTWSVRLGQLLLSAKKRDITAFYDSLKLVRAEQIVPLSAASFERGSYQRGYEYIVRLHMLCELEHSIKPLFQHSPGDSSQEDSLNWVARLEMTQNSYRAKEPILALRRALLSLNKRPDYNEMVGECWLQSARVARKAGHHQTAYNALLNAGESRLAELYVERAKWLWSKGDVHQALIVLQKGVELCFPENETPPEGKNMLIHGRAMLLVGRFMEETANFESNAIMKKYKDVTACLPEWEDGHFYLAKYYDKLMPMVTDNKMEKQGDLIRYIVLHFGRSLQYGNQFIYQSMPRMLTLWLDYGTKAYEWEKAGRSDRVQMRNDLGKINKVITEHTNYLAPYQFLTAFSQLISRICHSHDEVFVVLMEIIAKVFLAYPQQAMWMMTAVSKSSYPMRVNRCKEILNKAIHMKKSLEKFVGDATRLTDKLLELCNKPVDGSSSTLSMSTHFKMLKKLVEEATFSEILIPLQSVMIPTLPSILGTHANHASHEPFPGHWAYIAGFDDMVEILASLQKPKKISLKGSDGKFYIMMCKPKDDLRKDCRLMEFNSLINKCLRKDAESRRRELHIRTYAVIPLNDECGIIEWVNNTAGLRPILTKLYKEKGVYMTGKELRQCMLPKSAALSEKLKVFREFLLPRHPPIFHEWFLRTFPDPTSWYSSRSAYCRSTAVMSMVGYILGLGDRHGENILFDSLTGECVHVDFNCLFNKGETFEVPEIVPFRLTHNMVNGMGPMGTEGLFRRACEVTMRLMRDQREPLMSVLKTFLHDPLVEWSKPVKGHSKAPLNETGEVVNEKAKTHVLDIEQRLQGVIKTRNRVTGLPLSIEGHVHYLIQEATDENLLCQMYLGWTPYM
For `N#CCc1cnc2c(C(=O)Nc3cnccc3O[C@H]3CCNC3)c(N)nn2c1`, the Ki was less than 0.01 µM. With `CC(=O)N1CCN(c2ccncc2NC(=O)c2c(N)nn3cc(F)cnc23)CC1` the Ki was 0.01 to 1 µM. With `Nc1nn2cc(F)cnc2c1C(=O)Nc1cncc(F)c1N1CCC(C(=O)N2CCC(N3CCC3)CC2)CC1` the Ki was less than 0.01 µM.
